Experiment [1] concerns Puccinia recondita f sp. tritici. The experiment in a line: Test F: wheat leaf rust, preventive spray on wheat seedlings. The note with it: 100 = 100% disease control; for Test F disease control rating: 10 ppm test solution, 0 = no control relative to controls.
From the text: General protocol for preparing test solutions for Tests A-G: the test compounds were first dissolved in acetone in an amount equal to 3% of the final volume and then suspended at the desired concentration (in ppm) in acetone and purified water (50/50 mix by volume) containing 250 ppm of the surfactant PEG400 (polyhydric alcohol esters). The resulting test suspensions were then used in Tests A-G. Compounds were sprayed at a concentration of 50 ppm (*) or 10 ppm to the point of run-off on the test plants, the equivalent of a rate of 200 g/ha or 40 g/ha, respectively.
The test solution was sprayed to the point of run-off on wheat seedlings. The following day the seedlings were inoculated with a spore suspension of Puccinia recondita f sp. tritici; (the causal agent of wheat leaf rust) and incubated in a saturated atmosphere at 20° C. for 24 h, and then moved to a growth chamber at 20° C. for 6 days, after which time visual disease ratings were made.
A dash (-) indicates no test results. Compounds with an asterisks (*) were applied at a concentration of 50 ppm, otherwise test solutions were applied at 10 ppm.
Experiment [2] concerns Zymoseptoria tritici. The experiment in a line: Test E: wheat leaf blotch, preventive spray on wheat seedlings. As to conditions: 100 = 100% disease control; for Test E disease control rating: 10 ppm test solution, 0 = no control relative to controls.
Experiment [3] relates to Stagonospora nodorum. The experiment in a line: Test D: wheat glume blotch, preventive spray on wheat seedlings. The note with it: 100 = 100% disease control; for Test D disease control rating: 10 ppm test solution, 0 = no control relative to controls.
Experiment [4] deals with Erysiphe graminis f sp. tritici. Put plainly: Test G: wheat powdery mildew, preventive spray on wheat seedlings. The note with it: 100 = 100% disease control; for Test G disease control rating: 10 ppm test solution, 0 = no control relative to controls.

Each structure is given as a SMILES string.

For `COc1ccc(OCC2CC(C(O)(Cn3cncn3)C(C)(C)C)=NO2)cc1` (single isomer, unassigned) [Compound 260], the “Test F disease control rating” value in experiment [1] was 98%. Moreover, the “Test E disease control rating” value in experiment [2] amounted to 1%. Further, the “Test D disease control rating” value in experiment [3] is 99%. Moreover, the “Test G disease control rating” value in experiment [4] was 100%.
Take `CC1(C(O)(Cn2cncn2)C2=NOC(COc3ccc(Cl)cc3)C2)CC1` (single isomer, unassigned) [Compound 225]: the “Test F disease control rating” value in experiment [1] is reported as 100%. The “Test E disease control rating” value in experiment [2] is 0%. Besides, the “Test G disease control rating” value in experiment [4] worked out at 99%.
Turning to `CC(C)(C)C(O)(Cn1cncn1)C1=NOC(COc2ccc(Cl)cc2Cl)C1` (single isomer, unassigned) [Compound 255], the “Test F disease control rating” value in experiment [1] is listed as 100%. For the same compound, in experiment [2], the “Test E disease control rating” value was determined as 1%. Also, the “Test D disease control rating” value in experiment [3] came out at 100%. In experiment [4], the “Test G disease control rating” value stood at 100%.
Take `CC(C)(C)C(O)(Cn1cncn1)C1=NOC(COCc2ccc(Cl)cc2)C1` (single isomer, unassigned) [Compound 264]: the “Test F disease control rating” value in experiment [1] is on record as 0%. The “Test E disease control rating” value in experiment [2] is 0%. Also, the “Test D disease control rating” value in experiment [3] was 0%. The “Test G disease control rating” value in experiment [4] was 99%.
For `CC1(C(O)(Cn2cncn2)C2=NOC(COc3ccc(Br)cc3)C2)CC1` (single isomer, unassigned) [Compound 239], the “Test F disease control rating” value in experiment [1] is 100%. The “Test E disease control rating” value in experiment [2] is recorded as 0%. The “Test D disease control rating” value in experiment [3] came out at 98%. Moreover, the “Test G disease control rating” value in experiment [4] is 99%.
Turning to `CC1(C(O)(Cn2cncn2)C2=NOC(COc3ccc(C(F)(F)F)cc3)C2)CC1` (single isomer, unassigned) [Compound 237], in experiment [1], the “Test F disease control rating” value is recorded as 100%. In experiment [2], the “Test E disease control rating” value is 0%. The “Test D disease control rating” value in experiment [3] is 89%. Besides, the “Test G disease control rating” value in experiment [4] amounted to 98%.
Consider `CCC(C)(C)C(O)(Cn1cncn1)C1=NOC(COc2ccc(C(F)(F)F)cc2)C1` (single isomer, unassigned) [Compound 261], for which the “Test F disease control rating” value in experiment [1] is 100%. For the same compound, the “Test E disease control rating” value in experiment [2] stood at 92%. Moreover, the “Test D disease control rating” value in experiment [3] came out at 100%. Moreover, the “Test G disease control rating” value in experiment [4] is 100%.
Regarding `CC(C)(C)C(O)(Cn1cncn1)C1=NOC(CCOc2ccc(Cl)cc2)C1` (single isomer, unassigned) [Compound 209], in experiment [1] (10 ppm, wheat leaf rust, 0 = no control), the “Test F rating (% disease control)” value worked out at 100%. In experiment [2] (10 ppm, wheat leaf blotch, 0 = no control), the “Test E rating (% disease control)” value was determined as 11%. In experiment [3] (10 ppm, wheat glume blotch, 0 = no control), the “Test D rating (% disease control)” value is 99%. For the same compound, the “Test G rating (% disease control)” value in experiment [4] (10 ppm, wheat powdery mildew, 0 = no control) was found to be 100%.
`CC(C)(C)C(O)(Cn1cncn1)C1=NOC(CCOc2ccc(F)cc2)C1` (single isomer, unassigned) [Compound 270]: the “Test F disease control rating” value in experiment [1] is given as 100%. In addition, the “Test E disease control rating” value in experiment [2] is on record as 75%. Also, in experiment [3], the “Test D disease control rating” value is reported as 99%. Besides, the “Test G disease control rating” value in experiment [4] stood at 100%.
With `CC(C)(C)C(O)(Cn1cncn1)C1=NOC(CCOc2ccc(F)cc2)C1` (single isomer, unassigned) [Compound 269], the “Test F disease control rating” value in experiment [1] was found to be 100%. Further, the “Test E disease control rating” value in experiment [2] came to 73%. Besides, the “Test D disease control rating” value in experiment [3] came to 99%. Further, in experiment [4], the “Test G disease control rating” value came out at 100%.
On to `CC(C)(C)C(O)(Cn1cncn1)C1=NOC(COc2ccc(Cl)c(Cl)c2)C1` (single isomer, unassigned) [Compound 258], for which the “Test F disease control rating” value in experiment [1] was determined as 100%. In addition, in experiment [2], the “Test E disease control rating” value was found to be 0%. Further, the “Test D disease control rating” value in experiment [3] was found to be 100%. Further, the “Test G disease control rating” value in experiment [4] turned out to be 100%.
Take `Cc1ccc(OCC2CC(C(O)(Cn3cncn3)C(C)(C)C)=NO2)cc1` (single isomer, unassigned) [Compound 235]: the “Test F disease control rating” value in experiment [1] stood at 87%. Besides, in experiment [2], the “Test E disease control rating” value was 8%. For the same compound, in experiment [4], the “Test G disease control rating” value is given as 99%.
As to `OC(COc1ccc(Cl)cc1)(Cn1cncn1)C1=NOC(c2ccc(Cl)cc2)C1` (stereo not shown) [Compound 273], the “Test F disease control rating” value in experiment [1] stood at 98%. Moreover, the “Test E disease control rating” value in experiment [2] is recorded as 2%. Moreover, the “Test D disease control rating” value in experiment [3] worked out at 11%. Besides, in experiment [4], the “Test G disease control rating” value stood at 69%.
As to `CC(C)(C)C(O)(Cn1cncn1)C1=NOC(COc2cccc(C(F)(F)F)c2)C1` (single isomer, unassigned) [Compound 253], the “Test F disease control rating” value in experiment [1] is given as 100%. In addition, the “Test E disease control rating” value in experiment [2] was 3%. Further, the “Test D disease control rating” value in experiment [3] is given as 99%. Also, the “Test G disease control rating” value in experiment [4] is 100%.
For the compound `OC(COc1ccc(Cl)cc1)(Cn1cncn1)C1=NOC(COc2ccc(Cl)cc2)C1` (stereo not shown) [Compound 271], in experiment [1], the “Test F disease control rating” value is on record as 100%. In addition, the “Test E disease control rating” value in experiment [2] came to 2%. In experiment [3], the “Test D disease control rating” value worked out at 42%. In experiment [4], the “Test G disease control rating” value is listed as 92%.
Take `CC(C)(C)CC(O)(Cn1cncn1)C1=NOC(COc2ccc(F)cc2)C1` (single isomer, unassigned) [Compound 244]: in experiment [1], the “Test F disease control rating” value was 100%. Besides, the “Test E disease control rating” value in experiment [2] is given as 0%. In addition, the “Test D disease control rating” value in experiment [3] was found to be 99%. Further, in experiment [4], the “Test G disease control rating” value was found to be 99%.
Take `CC(C)(C)C(O)(Cn1cncn1)C1=NOC(COc2ccc(Cl)cc2)C1` (single isomer, unassigned) [Compound 242]: the “Test F disease control rating” value in experiment [1] stood at 99%. Also, the “Test E disease control rating” value in experiment [2] worked out at 0%. Further, the “Test D disease control rating” value in experiment [3] came out at 0%. The “Test G disease control rating” value in experiment [4] was determined as 68%.
For `CC1(C(O)(Cn2cncn2)C2=NOC(COc3ccc(Br)cc3)C2)CC1` (single isomer, unassigned) [Compound 238], in experiment [1], the “Test F disease control rating” value was 100%. The “Test E disease control rating” value in experiment [2] was 0%. For the same compound, in experiment [3], the “Test D disease control rating” value is recorded as 99%. For the same compound, in experiment [4], the “Test G disease control rating” value is on record as 99%.
Consider `CC1(C(O)(Cn2cncn2)C2=NOC(COc3ccc(Cl)cc3)C2)CC1` (single isomer, unassigned) [Compound 224], for which the “Test F disease control rating” value in experiment [1] came to 100%. Also, the “Test E disease control rating” value in experiment [2] is reported as 30%. For the same compound, in experiment [4], the “Test G disease control rating” value was 100%.
For `CC(C)(C)CC(O)(Cn1cncn1)C1=NOC(COc2ccc(C(F)(F)F)cc2)C1` (single isomer, unassigned) [Compound 240], the “Test F disease control rating” value in experiment [1] stood at 100%. Further, the “Test E disease control rating” value in experiment [2] was determined as 0%. For the same compound, in experiment [4], the “Test G disease control rating” value came out at 99%.
The like results for `Cc1ccc(OCC2CC(C(O)(Cn3cncn3)C(C)(C)C)=NO2)cc1` (single isomer, unassigned) [Compound 234] were, in that order, 0%, 0% and 99%.
In the case of `CC(C)(C)CC(O)(Cn1cncn1)C1=NOC(COc2ccc(C(F)(F)F)cc2)C1` (single isomer, unassigned) [Compound 241], the “Test F disease control rating” value in experiment [1] is recorded as 99%. Also, the “Test E disease control rating” value in experiment [2] was determined as 0%. Besides, the “Test G disease control rating” value in experiment [4] is 90%.

The values above are taken from patent US20160242416A1, “FUNGICIDAL ISOXAZOLINE CARBINOLS” (E I DU PONT DE NEMOURS AND COMPANY, priority 2015, published 2016).
